What was measured:
[1] = tested on: urease; conditions: literature and earlier patents; cited from earlier work
[2] = tested on: soil urease (Crowley silt loam); assay: Well-mixed inhibitor-soil incubation test, urea added at intervals (modified Douglass and Bremner procedure); type: biochemical; conditions: for Percent urea unhydrolyzed (higher = more urease inhibition): 7 micromoles per 120 g Crowley soil, 30° C., 16 hours with urea
Method: Test compounds in Example II, infra, were evaluated in soil systems by a modification of the Douglass and Bremner procedure [L. A. Douglass and J. W. Bremner, Soil Biol. Biochem. 3, 309-315 (1971)] in which solutions or suspensions of the test compounds were mixed throughout the soil. Then at selected time intervals urea was added to the soil-inhibitor mixtures. The advantage of this procedure is that soil urease inhibition by the test compounds can be detected for time periods lasting up to several weeks or longer.
(§1) Specifics of the procedure for evaluating the test compounds in Example II were the following. Urease-active soil (Crowley silt loam from Louisiana) was moistened to a moisture content of 16% (dry weight basis) and preincubated at room temperature for two days. One milliliter of solution or suspension containing 7 micromoles of each test compound was added to 120 g of moist soil and mixed well. Polyvinylchloride cylinders 12-cm long and 4 cm in diameter were filled with the inhibitor-soil mixtures, packed to a bulk density of about 0.9 g/cm^3, and covered with a perforated plastic film. […] At each time interval, 1 ml of urea solution containing 50 mg of urea was mixed well with the inhibitor-soil mixture from a single column. The urea-inhibitor-soil mixture was packed in a column to a bulk density of about 0.9 g/cm^3, covered with a perforated plastic film, and reincubated for 16 hours at 30° C. Following the 16 hours of reincubation, about 120 g of the urea-inhibitor-soil mixture was extracted with 250 ml of 2 M KCl containing 5 ppm of […]. The KCl-PPDA extracts were analyzed on the Auto Analyzer II [Technicon method No. 40001 FD4, Technicon, Tarrytown, N.Y., U.S.A. (1974)]. Three replicates were used on all treatments and checks.
as §1, with “are as follows.” for “were the following.”, “New York,” for “N.Y.,”, “checks. Two groups of compounds were tested as indicated in Table IV as Test Series I and Test Series II.” for “checks.”

[3] = tested on: urease; conditions: IFDC, unpublished results; cited from earlier work
[4] = tested on: soil urease (Hastings silt loam); assay: Urea hydrolysis in bands of urea plus inhibitor in soil (banded soil system); type: biochemical; conditions: for % inhibition, as measured by percent urea unhydrolyzed: 41 mg inhibitor + 410 mg urea per band, Hastings silt loam, 25° C.
Text: Another advantage of the banded configuration compared with mixing throughout the soil is that slightly soluble test compounds can be easily band applied, whereas it is difficult to achieve a known degree of mixing of a small quantity of slightly soluble test compound with soil. The banded configuration also enables testing for urease inhibition under realistic soil conditions prior to the development of techniques for cogranulating a wide range of test compounds with urea. […] Urease-active soil (Hastings silt loam) was moistened to a moisture content of 20% (dry weight basis) and preincubated at room temperature for two days. Plexiglas containers (6×6×6 -cm) were one-half filled with soil and packed to a bulk density of 1.1 g/cm^3. Urea or urea plus inhibitor (thoroughly mixed) was distributed in a narrow band 6-cm long on the soil surface. The containers then were filled with soil, again packing to a bulk density of 1.1 g/cm^3. The containers were incubated at 25° C. for the desired reaction period, after which the containers were frozen to about -5° C. to stop urea hydrolysis. Immediately prior to extracting the remaining urea from the soil, said soil was allowed to thaw. Soil from each container was thoroughly mixed, and a 10-g sample was extracted with 100 ml of 2 M KCl containing phenylmercuric acetate to prevent urea hydrolysis during handling [L. A. Douglass and J. M. Bremner, Soil Sci. Soc. Am.
Urease-active soil (Hastings silt loam) was moistened to a moisture content of 20% and preincubated at room temperature for two days. Plexiglas containers (6×6×6 cm) were one-half filled with soil and packed to a bulk density of 1.1 g/cm^3. Urea or urea plus inhibitor (thoroughly mixed) was distributed in a narrow band 6-cm long on the surface of the soil. The containers then were filled with soil and again packed to a bulk density of 1.1 g/cm^3. The containers were incubated at 25° C. for the desired reaction period. The soil from each container was thoroughly mixed, and a 10-g sample was extracted with 100 ml of 2 M KCl containing 5 ppm phenylmercuric acetate to prevent urea hydrolysis during handling [L. A. Douglass and J. M. Bremner, Soil Sci. Soc. Am. […] The urea in the extracts was determined colorimetrically as a measure of the unhydrolyzed urea.

[5] = Test Series I, inhibitor incubation 0 days
[6] = Test Series I, inhibitor incubation 3 days
[7] = Test Series I, inhibitor incubation 7 days
[8] = Test Series I, inhibitor incubation 14 days
[9] = Test Series I, inhibitor incubation 21 days
[10] = Test Series I, inhibitor incubation 35 days
[11] = Test Series II, inhibitor incubation 0 days
[12] = Test Series II, inhibitor incubation 7 days
[13] = Test Series II, inhibitor incubation 15 days
[14] = Test Series II, inhibitor incubation 21 days

Structure (SMILES) | urease inhibition (in words) reported by previous workers [1] | Percent urea unhydrolyzed (higher = more urease inhibition) [2, 5] [%] | Percent urea unhydrolyzed (higher = more urease inhibition) [2, 6] [%] | Percent urea unhydrolyzed (higher = more urease inhibition) [2, 7] [%] | Percent urea unhydrolyzed (higher = more urease inhibition) [2, 8] [%] | Percent urea unhydrolyzed (higher = more urease inhibition) [2, 9] [%] | Percent urea unhydrolyzed (higher = more urease inhibition) [2, 10] [%] | Percent urea unhydrolyzed (higher = more urease inhibition) [2, 11] [%] | Percent urea unhydrolyzed (higher = more urease inhibition) [2, 12] [%] | Percent urea unhydrolyzed (higher = more urease inhibition) [2, 13] [%] | Percent urea unhydrolyzed (higher = more urease inhibition) [2, 14] [%] | type of urease inhibition [3] | % inhibition, as measured by percent urea unhydrolyzed ([4]; Test Series I, 3 days) [%] | % inhibition, as measured by percent urea unhydrolyzed ([4]; Test Series I, 6 days) [%] | % inhibition, as measured by percent urea unhydrolyzed ([4]; Test Series II, 0 days) [%] | % inhibition, as measured by percent urea unhydrolyzed ([4]; Test Series II, 3 days) [%] | % inhibition, as measured by percent urea unhydrolyzed ([4]; Test Series II, 6 days) [%] | urease inhibitory activity remaining after long inhibitor incubation (in words) ([2]; up to 21 days incubation, Table IV, FIGS. 3 and 4) | effectiveness as an inhibitor of soil urease activity compared with PPDA (in words) ([4]; Table III, FIGS. 1 and 2, three-day and six-day tests)
NP(N)(=O)Oc1ccccc1 [PPDA, Phenyl phosphorodiamidate] | extremely potent inhibitor of urease activity | 100 | 65 | 59 | 33 | 13 | 2 | 89 | 38 | 37 | 11 | competitive inhibition | 62.6 | 10.1 | 96.4 | 90.3 | 58.2 | – | –
NP(N)(N)=O [PTA, Phosphoryl triamide] | powerful urease inhibitors | – | – | – | – | – | – | – | – | – | – | – | 54.6 | 2.6 | – | – | – | – | –
NP(N)(=S)Oc1ccccc1 [PTPDA, Phenylthiophosphenyl diamidate] | less effective as an inhibitor | – | – | – | – | – | – | 56 | 21 | 24 | 2 | – | – | – | 100.0 | 97.2 | 65.7 | – | –
NP(N)(N)=S [TPTA, Thiophosphoryl triamide] | ineffective as a urease inhibitor | 59 | 54 | 54 | 19 | 27 | 2 | 47 | 13 | 37 | 18 | – | 71.7 | 34.9 | 100.0 | 88.0 | 61.1 | superior | superior to PPDA
NP(N)(=O)O [diamidophosphoric acid] | effective urease inhibitors | – | – | – | – | – | – | – | – | – | – | – | – | – | – | – | – | – | –
Oc1ccc(O)cc1 [hydroquinone] | – | – | – | – | – | – | – | – | – | – | – | mixed inhibition mechanism | – | – | – | – | – | – | –
NP(=O)(O)O [monoamidophosphoric acid] | effective urease inhibitors | – | – | – | – | – | – | – | – | – | – | – | – | – | – | – | – | – | –

— patent USH25H, “Thiophosphoryl triamide as a urease inhibitor” (Tennessee Valley Authority, priority 1985, dated 1986)
